Assay results taken from the NIST ThermoML archive (doi:10.1021/je101139k).

What was measured:
[1] = Crystal; DTA
[2] = Molar enthalpy of transition or fusion; details: Crystal; DSC
[3] = molar heat capacity at constant pressure; details: 101.33 kPa, Small sample (50 mg) DSC

[Br-].[Br-].[Br-].[Pr+3] [praseodymium(III) bromide]
Details | Molar enthalpy of transition or fusion [kJ/mol] | Normal melting temperature [°C]
[1] | – | 687
[2] | 46.4 | –

molar heat capacity at constant pressure [J/K/mol], [3]
Details | Crystal | Liquid
298.15 K | 105.37 | –
300 K | 105.39 | –
331 K | 105.87 | –
400 K | 106.93 | –
500 K | 108.46 | –
600 K | 109.99 | –
700 K | 111.52 | –
800 K | 113.05 | –
900 K | 114.58 | –
960 K | 115.5 | 141.39
1000 K | – | 141.39
1065 K | – | 141.39
1100 K | – | 141.39
1191 K | – | 141.39
1200 K | – | 141.39
1300 K | – | 141.39
